# How the values were obtained:
# [1] = biological target: T1, RhaS-GB1^201b (Escherichia coli, UniProt P09377, L201R); assay: EMSA in vitro DNA binding by RhaS-GB1^201b; type: biochemical, E. coli
# T1 construct: solubility-enhancement tag to the C-terminus of full-length RhaS L201R; GB1basic (basic variant of GB1 solubility-enhancement tag) (C); made in house; host or cells: E. coli Acella, pET21-derived plasmid
# Description: All proteins for this study were expressed in E. coli. Untagged CRP was purified by Ni^2+-affinity chromatography as described. Lad protein was purified by ammonium sulfate precipitation and phosphocellulose column chromatography as described. RhaS-GB1^201b and GB1^b-RhaR were purified by Ni^2+-affinity chromatography. Briefly, plasmids derived from pET21 and expressing RhaS-GB1^201b and GB1^b-RhaR were transformed into competent cells of strains Acella™ (MoBiTec, Gottingen, Germany) or ArcticExpress(DE3) (Agilent Technologies, Santa Clara Calif.), respectively. The cells were grown in 1 liter TY plus ampicillin and rhamnose. Gentamycin was also added for GB1^b-RhaR. The cells were grown to OD600 of 0.5, transferred to a 15° C. shaker, 0.1 mM IPTG was added, and then incubated overnight. Cells were harvested by centrifugation and then resuspended in 30 mL of cold binding buffer (20 mM Tris, 500 mM NaCl, 5 mM imidazole, pH 7.9) plus L-rhamnose. […]
# IRD700- and DY682-labeled oligos were from Eurofins MWG Operon. […] EMSA gels were imaged using an Odyssey infrared imager (LI-COR, Lincoln, Nebr.), and quantified using the Odyssey software, version 3.0.30. […] Inhibition values were calculated and graphs were drawn as for in vivo dose-response experiments.
# [2] = tested on: ipaB; assay: Shigella gene expression qRT-PCR, ipaB; type: cell-based, S. flexneri; conditions: for Average ΔΔCt / Ct / RQ (2^−ΔΔCt) / ΔΔCt^1 (normalized to gapA) / ΔΔCt^2 (normalized to rrsA): ipaB, example data
# Method: Real-time quantitative reverse transcription PCR (qRT-PCR) was performed to test the effects of SE-1 on the expression of the VirF regulated genes virB, icsA, icsB and ipaB. The gapA and rrsA transcripts were used as internal controls. These are constitutively expressed Shigella genes commonly used to normalize mRNA levels. S. flexneri strain SME4331, which carries a null mutation in ipgD (ipgD), was grown at 30° C. overnight in TSB with ampicillin, diluted into the same medium to an OD600 of ˜0.1, and 1 ml aliquots further grown at 30° C. (DMSO only) or at 37° C. (SE-1 at 20 or 40 μM, or DMSO only, all 0.3% DMSO). Cells were grown to an OD600 of 1.0 (˜2.5 h) and RNA was isolated using an RNeasy MiniElute Cleanup Kit (Qiagen, Germantown, Md.), with DNA contamination eliminated using a Turbo DNase Kit (Ambion, Austin, Tex.). Complementary DNA (cDNA) was synthesized by random priming using a cDNA Reverse Transcription Kit (Applied Biosystems, Foster City, Calif.). Primers were tested for PCR specificity using genomic DNA template to ensure a single amplicon of the expected size for each primer pair, and validated using 5-fold dilutions of cDNA (2000 to 0.0256 ng) to ensure a linear plot of cycle threshold (Ct) versus cDNA concentration. Validated primer sets were used to test mRNA profiles in reactions that contained 10 ng of cDNA, 10 μl of SYBR green master mix (Applied Biosystems), specific primers (0.5 μM each) and water to a final volume of 20 μl, using a Step One Plus Real-Time PCR System (Applied Biosystems). The data was analyzed using the 2^−ΔΔCt method, and also by Applied Biosystems real-time analysis software. […] In brief, ΔΔCt values [ΔΔCt=(Ct,Target−Ct,Internal Control)SE-1−(Ct,Target−Ct,Internal Control)no SE-1] were separately obtained for each sample relative to two internal controls, gapA and rrsA. The ΔΔCt values relative to the two internal controls for each sample were averaged and then used to calculate the relative expression levels (2^−ΔΔCt). As a control, we also normalized each internal control to the other internal control. Control reactions used templates generated without reverse transcriptase to ensure low genomic DNA contamination. To ensure that products were not likely to be due to primer dimer artifacts, additional control samples were performed in which reaction mixtures contained primers alone (no template).
# T1 sequence (P09377 whole entry L201R): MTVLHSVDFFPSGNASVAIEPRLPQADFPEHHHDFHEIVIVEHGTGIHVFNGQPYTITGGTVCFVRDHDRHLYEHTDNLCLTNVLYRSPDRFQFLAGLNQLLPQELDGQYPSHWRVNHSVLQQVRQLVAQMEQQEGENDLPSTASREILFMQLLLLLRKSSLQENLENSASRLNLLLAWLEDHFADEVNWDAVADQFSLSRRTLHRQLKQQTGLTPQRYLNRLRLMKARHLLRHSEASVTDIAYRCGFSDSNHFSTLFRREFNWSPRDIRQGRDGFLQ
smiles,measurement,setting,value
"CCCCN1C=C(c2ccc3ccccc3n2)C(C[N+](=O)[O-])c2ccccc21 (stereo not shown) [Compound 1, 1-butyl-4-(nitromethyl)-3-quinolin-2-yl-4H-quinoline]",IC50,[1],~70 µM
same,inhibition of DNA binding by RhaS-GB1^201b,"[1]; EMSA, dose-dependent",fully inhibit DNA binding
same,reduction of ipaB expression,"[2]; 40 μM inhibitor, P<0.05",up to 4 fold
same,Average ΔΔCt,[2]; SE-1 20 μM,1.11
same,Ct,[2]; SE-1 20 μM,25.57
same,RQ (2^−ΔΔCt),[2]; SE-1 20 μM,0.46
same,ΔΔCt^1 (normalized to gapA),[2]; SE-1 20 μM,0.62
same,ΔΔCt^2 (normalized to rrsA),[2]; SE-1 20 μM,1.61
same,Average ΔΔCt,[2]; SE-1 40 μM,2.20
same,Ct,[2]; SE-1 40 μM,26.23
same,RQ (2^−ΔΔCt),[2]; SE-1 40 μM,0.22
same,ΔΔCt^1 (normalized to gapA),[2]; SE-1 40 μM,1.85
same,ΔΔCt^2 (normalized to rrsA),[2]; SE-1 40 μM,2.54

# Source: US20140088144A1, “INHIBITING MICROBIAL INFECTIONS” (THE UNIVERSITY OF KANSAS, priority 2012, published 2014)
